{"source": "patent US4933332A", "about": "“11-desoxy-17-α-hydroxycorticosterone derivatives” (priority 1988, dated 1990)", "key": {"mice fibroblasts L-929": {"system": "mice fibroblasts L-929", "conditions": "effects are reversible; cited from earlier work"}, "cell receptors": {"system": "cell receptors", "conditions": "effects are reversible; cited from earlier work"}, "L 1210": {"system": "L 1210", "assay": "Antitumor effect on grafted hemoblastoses (L 1210), extension of lifespan", "format": "in vivo, mice and rats"}, "P-388": {"system": "P-388", "assay": "Antitumor effect on grafted hemoblastoses (P-388), extension of lifespan", "format": "in vivo, mice and rats"}, "MOPG-406": {"system": "MOPG-406", "assay": "Antitumor effect on grafted hemoblastoses (MOPC-406), extension of lifespan", "format": "in vivo, mice and rats"}, "[1]": {"system": "Viral leukosis Mazurenko LMC-1", "assay": "Antitumor effect on grafted hemoblastoses (LMC-1), extension of lifespan", "format": "in vivo, mice and rats", "conditions": "LMC-1; days 2-6 after grafting; effective dose range per compound, 24 h × 5"}, "Ca-755": {"system": "Ca-755", "assay": "Antitumor effect on grafted solid tumor Ca-755", "format": "in vivo, mice and rats"}, "S-37": {"system": "S-37", "assay": "Antitumor effect on grafted solid tumor S-37", "format": "in vivo, mice and rats"}, "[2]": {"system": "Large intestine adenocarcinoma AKATOL", "assay": "Antitumor effect on grafted large intestine adenocarcinoma AKATOL", "format": "in vivo, mice and rats"}, "Lewis lung carcinoma LL": {"system": "Lewis lung carcinoma LL", "assay": "Antitumor effect on grafted Lewis lung carcinoma LL", "format": "in vivo, mice and rats"}, "Hepatoma G-22c": {"system": "Hepatoma G-22c", "assay": "Antitumor effect on grafted hepatoma G-22c", "format": "in vivo, mice and rats", "conditions": "G-22c; days 2-6; effective dose range per compound, 24 h × 5"}, "Hepatoma G-60": {"system": "Hepatoma G-60", "assay": "Antitumor effect on grafted hepatoma G-60", "format": "in vivo, mice and rats"}, "Hepatoma G-61": {"system": "Hepatoma G-61", "assay": "Antitumor effect on grafted hepatoma G-61", "format": "in vivo, mice and rats"}, "[3]": {"system": "Alveolar mammary cancer RMK-1", "assay": "Antitumor effect on grafted alveolar mammary cancer RMK-1", "format": "in vivo, mice and rats"}, "[4]": {"system": "adrenalectomized rat youngsters", "assay": "Lifespan of adrenalectomized rat youngsters (biological test for the glucocorticoidal activity)", "format": "in vivo", "conditions": "25-days adrenalectomized rats"}, "La": {"system": "La", "parameters": "species or system mice and rats", "conditions": "in vivo"}, "mice": {"system": "mice", "conditions": "mouse, in vivo"}, "in vivo": {"assay": "in vivo", "conditions": "mouse"}, "S-180": {"system": "S-180", "parameters": "species or system mice and rats", "conditions": "in vivo"}, "[5]": {"conditions": "cited from earlier work"}}, "note": "Where a name gives a salt, the structure may show the parent alone."}
{"smiles": "CC1(C)O[C@@H]2C[C@H]3[C@@H]4CCC5=CC(=O)C=C[C@]5(C)[C@@]4(F)[C@@H](O)C[C@]3(C)[C@]2(C(=O)COC(=O)N(CCCl)CCCl)O1", "note": "[9αF,11β,16α, 17α,26-tetraoxypregna-1,4-diene-3,20-dione-21-[bis-(2-chloroethyl)carbamate], 16,17-acetonide]", "values": [{"measurement": "growth of cultures of mice fibroblasts L-929", "setting": "mice fibroblasts L-929", "result": "inhibit growth of cultures of mice fibroblasts L-929"}, {"measurement": "reaction with cell receptors", "setting": "cell receptors", "result": "react with cell receptors"}]}
{"smiles": "C[C@]12CCC(=O)C=C1CC[C@@H]1[C@@H]2CC[C@@]2(C)[C@H]1CC[C@]2(O)C(=O)CO", "note": "[11-Desoxy-17α-hydroxycorticosterone, 11-desoxy-17α-hydroxycorticosterone, reference compound]", "values": [{"measurement": "Extension of the lifespan of the animals (ELA)", "setting": "L 1210; L 1210, days 2-6 after grafting, effective dose range per compound, 24 h × 5", "result": 6, "unit": "%"}, {"measurement": "Extension of the lifespan of the animals (ELA)", "setting": "P-388; P-388, days 2-6 after grafting, effective dose range per compound, 24 h × 5", "result": -7, "unit": "%"}, {"measurement": "Extension of the lifespan of the animals (ELA)", "setting": "MOPG-406; MOPG-406, days 2-6 after grafting, effective dose range per compound, 24 h × 5", "result": 0, "unit": "%"}, {"measurement": "Extension of the lifespan of the animals (ELA)", "setting": "[1]", "result": 17, "unit": "%"}, {"measurement": "Maximum tumor growth inhibition", "setting": "Ca-755; Ca-755, days 2-6, effective dose range per compound, 24 h × 5, \"+\" = stimulation of tumor growth", "result": "+105%"}, {"measurement": "Maximum tumor growth inhibition", "setting": "S-37; S-37, days 2-6, effective dose range per compound, 24 h × 5", "result": 29, "unit": "%"}, {"measurement": "Maximum tumor growth inhibition", "setting": "[2]; AKATOL, days 2-6, effective dose range per compound, 24 h × 5, \"+\" = stimulation of tumor growth", "result": "+41%"}, {"measurement": "Maximum tumor growth inhibition", "setting": "Lewis lung carcinoma LL; LL, days 2-6, effective dose range per compound, 24 h × 5", "result": 28, "unit": "%"}, {"measurement": "Maximum tumor growth inhibition", "setting": "Hepatoma G-22c", "result": 3, "unit": "%"}, {"measurement": "Maximum tumor growth inhibition", "setting": "Hepatoma G-60; G-60, days 6-10, effective dose range per compound, 24 h × 5", "result": 38, "unit": "%"}, {"measurement": "Maximum tumor growth inhibition", "setting": "Hepatoma G-61; G-61, days 7-11, effective dose range per compound, 24 h × 5", "result": 37, "unit": "%"}, {"measurement": "Maximum tumor growth inhibition", "setting": "[3]; RMK-1, days 3-7, effective dose range per compound, 24 h × 5, \"+\" = stimulation of tumor growth", "result": "+4%"}, {"measurement": "extension of lifespan of adrenalectomized rat youngsters", "setting": "[4]", "result": 115, "unit": "%"}]}
{"smiles": "C[C@]12CCC(=O)C=C1CC[C@@H]1[C@@H]2CC[C@@]2(C)[C@H]1CC[C@]2(O)C(=O)COC(=O)CCCc1ccc(N(CCCl)CCCl)cc1", "note": "[11-desoxy-17α-hydroxy-21-[p-di(2-chloroethyl)aminophenylbutyrate] corticosterone]", "values": [{"measurement": "Extension of the lifespan of the animals (ELA)", "setting": "L 1210; in vivo", "result": 20, "unit": "%"}, {"measurement": "Extension of the lifespan of the animals (ELA)", "setting": "P-388; in vivo", "result": 82, "unit": "%"}, {"measurement": "Extension of the lifespan of the animals (ELA)", "setting": "MOPG-406; in vivo", "result": 70, "unit": "%"}, {"measurement": "Extension of the lifespan of the animals (ELA)", "setting": "La", "result": 18, "unit": "%"}, {"measurement": "toxicity (relative)", "setting": "mice", "result": "even lower toxicity"}, {"measurement": "MTD", "setting": "in vivo", "result": 350, "unit": "mg/kg"}]}
{"smiles": "C[C@]12CCC(=O)C=C1CC[C@@H]1[C@@H]2[C@@H](O)C[C@@]2(C)[C@H]1CC[C@]2(O)C(=O)COC(=O)N(CCCl)CCCl", "note": "[11β,17α,21-trihydroxy-pregnene-4-3,20-dione-21-[bis(2-chloroethyl)carbamate]]", "values": [{"measurement": "growth of cultures of mice fibroblasts L-929", "setting": "mice fibroblasts L-929", "result": "inhibit growth of cultures of mice fibroblasts L-929"}, {"measurement": "reaction with cell receptors", "setting": "cell receptors", "result": "react with cell receptors"}]}
{"smiles": "O=C(O)CCCc1ccc(N(CCCl)CCCl)cc1", "note": "[Chlorambucyl, p-di-(2-chloroethyl)aminophenylbutyric acid, reference compound]", "values": [{"measurement": "MTD", "setting": "in vivo", "result": 25, "unit": "mg/kg"}]}
{"smiles": "C[C@]12CC[C@@H]3c4ccc(OC(=O)N(CCCl)CCCl)cc4CC[C@H]3[C@@H]1CC[C@@H]2OP(=O)(O)O", "note": "[Estracyte, estra-1,3,5-(10)treine-3,17β-diol-3N-[bis-(2-chloroethyl)carbamate-17-sodium phosphate, reference compound]", "values": [{"measurement": "Maximum tumor growth inhibition", "setting": "Ca-755; in vivo", "result": "+6%"}, {"measurement": "Maximum tumor growth inhibition", "setting": "S-37; in vivo", "result": 85, "unit": "%"}, {"measurement": "Maximum tumor growth inhibition", "setting": "S-180", "result": "+23%"}, {"measurement": "Maximum tumor growth inhibition", "setting": "Lewis lung carcinoma LL; in vivo", "result": 29, "unit": "%"}]}
{"smiles": "C[C@]12C=CC(=O)C=C1CC[C@@H]1[C@@H]2[C@@H](O)C[C@@]2(C)[C@H]1CC[C@]2(O)C(=O)COC(=O)CCCc1ccc(N(CCCl)CCCl)cc1", "note": "[Prednimustine, pregna-1,4-diene-3,20-dione, 11β17,21-trihydroxy-21-[p-di(2-chloroethyl)aminophenylbutyrate]]", "values": [{"measurement": "hematotoxicity", "setting": "[5]; in vivo", "result": "Hematotoxicity usually limiting administration"}, {"measurement": "side effects", "setting": "[5]; oncological clinic", "result": "associated mainly with hematotoxicity"}]}
{"smiles": "C[C@]12C=CC(=O)C=C1CC[C@@H]1[C@@H]2[C@@H](O)C[C@@]2(C)[C@H]1CC[C@]2(O)C(=O)CO", "note": "[Prednisolone, pregnadiene-1,4-triol-11β,17α,21-dione-3,20, reference compound]", "values": [{"measurement": "Maximum tumor growth inhibition", "setting": "Ca-755; in vivo", "result": 70, "unit": "%"}, {"measurement": "Maximum tumor growth inhibition", "setting": "S-37; in vivo", "result": 44, "unit": "%"}, {"measurement": "Maximum tumor growth inhibition", "setting": "[2]; in vivo", "result": 67, "unit": "%"}, {"measurement": "Maximum tumor growth inhibition", "setting": "Lewis lung carcinoma LL; in vivo", "result": 30, "unit": "%"}, {"measurement": "Maximum tumor growth inhibition", "setting": "Hepatoma G-61; in vivo", "result": 44, "unit": "%"}]}
{"smiles": "NC(Cc1ccc(N(CCCl)CCCl)cc1)C(=O)O", "note": "(stereo not drawn) [Sarcolysine, β-[p-di(2-chloroethyl)aminophenyl]-α-alanine hydrochloride, reference compound]", "values": [{"measurement": "Maximum tumor growth inhibition", "setting": "Ca-755; in vivo", "result": 83, "unit": "%"}, {"measurement": "Maximum tumor growth inhibition", "setting": "S-37; in vivo", "result": 95, "unit": "%"}, {"measurement": "Maximum tumor growth inhibition", "setting": "S-180", "result": 76, "unit": "%"}, {"measurement": "Maximum tumor growth inhibition", "setting": "[2]; in vivo", "result": 56, "unit": "%"}, {"measurement": "Maximum tumor growth inhibition", "setting": "Lewis lung carcinoma LL; in vivo", "result": 58, "unit": "%"}, {"measurement": "Maximum tumor growth inhibition", "setting": "Hepatoma G-60; in vivo", "result": 90, "unit": "%"}, {"measurement": "Maximum tumor growth inhibition", "setting": "Hepatoma G-61; in vivo", "result": 87, "unit": "%"}, {"measurement": "Maximum tumor growth inhibition", "setting": "[3]; in vivo", "result": "+86%"}]}
